Legend:
[1] = molecular target: Cytoplasmic tyrosine-protein kinase BMX (Homo sapiens) (UniProt P51813); settings: Compound concentration 100.0 nM
[2] = molecular target: T1, Inhibitor of nuclear factor kappa-B kinase subunit beta (Homo sapiens) (UniProt O14920); settings: Compound concentration 100.0 nM
T1 sequence (whole entry): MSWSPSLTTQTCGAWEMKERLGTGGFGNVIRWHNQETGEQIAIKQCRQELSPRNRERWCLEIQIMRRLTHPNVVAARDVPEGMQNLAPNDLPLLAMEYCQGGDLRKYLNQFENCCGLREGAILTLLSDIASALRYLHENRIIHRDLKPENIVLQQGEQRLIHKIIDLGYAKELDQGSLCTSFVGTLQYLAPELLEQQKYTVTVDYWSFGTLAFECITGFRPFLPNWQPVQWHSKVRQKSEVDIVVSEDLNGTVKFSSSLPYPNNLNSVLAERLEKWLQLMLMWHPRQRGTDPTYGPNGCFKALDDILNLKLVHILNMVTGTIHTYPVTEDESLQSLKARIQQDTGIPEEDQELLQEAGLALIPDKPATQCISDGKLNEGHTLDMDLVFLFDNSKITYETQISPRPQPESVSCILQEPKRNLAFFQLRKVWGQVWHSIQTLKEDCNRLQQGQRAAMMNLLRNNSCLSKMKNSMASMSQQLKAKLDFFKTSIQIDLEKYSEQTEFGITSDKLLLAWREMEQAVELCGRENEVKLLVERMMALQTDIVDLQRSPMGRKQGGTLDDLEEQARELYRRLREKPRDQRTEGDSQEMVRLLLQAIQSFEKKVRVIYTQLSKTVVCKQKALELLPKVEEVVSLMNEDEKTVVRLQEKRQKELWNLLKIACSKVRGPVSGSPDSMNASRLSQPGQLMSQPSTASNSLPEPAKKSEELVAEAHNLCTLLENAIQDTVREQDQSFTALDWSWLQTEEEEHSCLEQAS

[3] = molecular target: 5'-AMP-activated protein kinase catalytic subunit alpha-1 (Homo sapiens) (UniProt Q13131); settings: Compound concentration 100.0 nM
[4] = molecular target: Calcium/calmodulin-dependent protein kinase type 1 (Homo sapiens) (UniProt Q14012); settings: Compound concentration 100.0 nM
[5] = system: Epidermal growth factor receptor (Homo sapiens), P00533 [UNDEFINED MUTATION]; settings: Compound concentration 100.0 nM
[6] = molecular target: Dual specificity protein kinase CLK3 (Homo sapiens) (UniProt P49761); settings: Compound concentration 100.0 nM
[7] = molecular target: Cyclin-dependent kinase 11B (Homo sapiens) (UniProt P21127); settings: Compound concentration 100.0 nM
[8] = molecular target: Rho-associated protein kinase 2 (Homo sapiens) (UniProt O75116); settings: Compound concentration 100.0 nM
[9] = molecular target: 5-hydroxytryptamine receptor 7 (Homo sapiens) (UniProt P34969); settings: Compound concentration 10.0 uM
[10] = molecular target: Aurora kinase C (Homo sapiens) (UniProt Q9UQB9); settings: Compound concentration 100.0 nM
[11] = molecular target: Focal adhesion kinase 1 (Homo sapiens) (UniProt Q05397); settings: Compound concentration 100.0 nM
[12] = molecular target: NT-3 growth factor receptor (Homo sapiens) (UniProt Q16288); settings: Compound concentration 100.0 nM
[13] = molecular target: Alpha-2B adrenergic receptor (Homo sapiens) (UniProt P18089); settings: Compound concentration 10.0 uM
[14] = system: eIF-2-alpha kinase GCN2 (Homo sapiens), Q9P2K8 [S808G]; settings: Compound concentration 100.0 nM
[15] = molecular target: Leucine-rich repeat serine/threonine-protein kinase 2 (Homo sapiens) (UniProt Q5S007); settings: Compound concentration 100.0 nM
[16] = molecular target: Mitogen-activated protein kinase 11 (Homo sapiens) (UniProt Q15759); settings: Compound concentration 100.0 nM
[17] = system: Receptor-type tyrosine-protein kinase FLT3 (Homo sapiens), P36888 [D835Y]; settings: Compound concentration 100.0 nM
[18] = molecular target: TGF-beta receptor type-2 (Homo sapiens) (UniProt P37173); settings: Compound concentration 100.0 nM
[19] = system: Mast/stem cell growth factor receptor Kit (Homo sapiens), P10721 [D816V]; settings: Compound concentration 100.0 nM
[20] = molecular target: Calcium/calmodulin-dependent protein kinase kinase 1 (Homo sapiens) (UniProt Q8N5S9); settings: Compound concentration 100.0 nM
[21] = molecular target: BDNF/NT-3 growth factors receptor (Homo sapiens) (UniProt Q16620); settings: Compound concentration 100.0 nM
[22] = molecular target: Ribosomal protein S6 kinase alpha-1 (Homo sapiens) (UniProt Q15418); settings: Compound concentration 100.0 nM
[23] = system: Mast/stem cell growth factor receptor Kit (Homo sapiens), P10721 [V559D,T670I]; settings: Compound concentration 100.0 nM
[24] = molecular target: Tyrosine-protein kinase Tec (Homo sapiens) (UniProt P42680); settings: Compound concentration 100.0 nM
[25] = molecular target: Mitogen-activated protein kinase kinase kinase 5 (Homo sapiens) (UniProt Q99683); settings: Compound concentration 100.0 nM
[26] = molecular target: Serine/threonine-protein kinase DCLK3 (Homo sapiens) (UniProt Q9C098); settings: Compound concentration 100.0 nM
[27] = molecular target: Hepatocyte growth factor receptor (Homo sapiens) (UniProt P08581); settings: Compound concentration 100.0 nM
[28] = molecular target: Serine/threonine-protein kinase Nek3 (Homo sapiens) (UniProt P51956); settings: Compound concentration 100.0 nM
[29] = molecular target: Interleukin-1 receptor-associated kinase 1 (Homo sapiens) (UniProt P51617); settings: Compound concentration 100.0 nM
Chain of Interleukin-1 receptor-associated kinase 1 (Homo sapiens) (P51617 whole entry, looked up): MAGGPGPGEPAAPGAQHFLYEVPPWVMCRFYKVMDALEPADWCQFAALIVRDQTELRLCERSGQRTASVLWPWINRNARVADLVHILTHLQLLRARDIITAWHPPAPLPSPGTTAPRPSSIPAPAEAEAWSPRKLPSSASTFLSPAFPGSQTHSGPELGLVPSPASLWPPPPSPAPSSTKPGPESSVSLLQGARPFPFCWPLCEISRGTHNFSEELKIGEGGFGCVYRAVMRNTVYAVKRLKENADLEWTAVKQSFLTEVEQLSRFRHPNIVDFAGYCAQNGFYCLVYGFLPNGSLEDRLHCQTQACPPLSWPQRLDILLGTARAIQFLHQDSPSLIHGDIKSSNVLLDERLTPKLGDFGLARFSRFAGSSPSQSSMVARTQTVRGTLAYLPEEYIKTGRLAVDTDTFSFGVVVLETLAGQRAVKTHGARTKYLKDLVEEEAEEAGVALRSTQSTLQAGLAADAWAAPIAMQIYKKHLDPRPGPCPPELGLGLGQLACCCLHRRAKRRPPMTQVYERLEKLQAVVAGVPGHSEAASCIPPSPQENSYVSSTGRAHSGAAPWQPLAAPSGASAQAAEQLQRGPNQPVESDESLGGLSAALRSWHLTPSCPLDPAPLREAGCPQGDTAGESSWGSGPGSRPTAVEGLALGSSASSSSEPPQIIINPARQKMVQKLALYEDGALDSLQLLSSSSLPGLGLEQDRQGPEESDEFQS

Chain of 5-hydroxytryptamine receptor 7 (Homo sapiens) (P34969 whole entry): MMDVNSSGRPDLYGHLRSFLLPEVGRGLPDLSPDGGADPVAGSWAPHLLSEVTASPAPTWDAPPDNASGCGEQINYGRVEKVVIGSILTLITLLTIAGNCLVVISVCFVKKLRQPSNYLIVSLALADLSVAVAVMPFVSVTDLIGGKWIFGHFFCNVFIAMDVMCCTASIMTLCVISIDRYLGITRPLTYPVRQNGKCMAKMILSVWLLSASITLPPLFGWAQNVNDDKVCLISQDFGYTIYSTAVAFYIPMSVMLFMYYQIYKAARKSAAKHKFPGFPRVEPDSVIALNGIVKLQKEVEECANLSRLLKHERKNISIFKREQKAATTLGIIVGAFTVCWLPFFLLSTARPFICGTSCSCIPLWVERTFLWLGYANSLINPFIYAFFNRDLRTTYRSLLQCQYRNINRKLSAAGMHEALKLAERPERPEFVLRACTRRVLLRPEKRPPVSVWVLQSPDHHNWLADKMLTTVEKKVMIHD
Chain of eIF-2-alpha kinase GCN2 (Homo sapiens), Q9P2K8 [S808G] (Q9P2K8 whole entry S808G): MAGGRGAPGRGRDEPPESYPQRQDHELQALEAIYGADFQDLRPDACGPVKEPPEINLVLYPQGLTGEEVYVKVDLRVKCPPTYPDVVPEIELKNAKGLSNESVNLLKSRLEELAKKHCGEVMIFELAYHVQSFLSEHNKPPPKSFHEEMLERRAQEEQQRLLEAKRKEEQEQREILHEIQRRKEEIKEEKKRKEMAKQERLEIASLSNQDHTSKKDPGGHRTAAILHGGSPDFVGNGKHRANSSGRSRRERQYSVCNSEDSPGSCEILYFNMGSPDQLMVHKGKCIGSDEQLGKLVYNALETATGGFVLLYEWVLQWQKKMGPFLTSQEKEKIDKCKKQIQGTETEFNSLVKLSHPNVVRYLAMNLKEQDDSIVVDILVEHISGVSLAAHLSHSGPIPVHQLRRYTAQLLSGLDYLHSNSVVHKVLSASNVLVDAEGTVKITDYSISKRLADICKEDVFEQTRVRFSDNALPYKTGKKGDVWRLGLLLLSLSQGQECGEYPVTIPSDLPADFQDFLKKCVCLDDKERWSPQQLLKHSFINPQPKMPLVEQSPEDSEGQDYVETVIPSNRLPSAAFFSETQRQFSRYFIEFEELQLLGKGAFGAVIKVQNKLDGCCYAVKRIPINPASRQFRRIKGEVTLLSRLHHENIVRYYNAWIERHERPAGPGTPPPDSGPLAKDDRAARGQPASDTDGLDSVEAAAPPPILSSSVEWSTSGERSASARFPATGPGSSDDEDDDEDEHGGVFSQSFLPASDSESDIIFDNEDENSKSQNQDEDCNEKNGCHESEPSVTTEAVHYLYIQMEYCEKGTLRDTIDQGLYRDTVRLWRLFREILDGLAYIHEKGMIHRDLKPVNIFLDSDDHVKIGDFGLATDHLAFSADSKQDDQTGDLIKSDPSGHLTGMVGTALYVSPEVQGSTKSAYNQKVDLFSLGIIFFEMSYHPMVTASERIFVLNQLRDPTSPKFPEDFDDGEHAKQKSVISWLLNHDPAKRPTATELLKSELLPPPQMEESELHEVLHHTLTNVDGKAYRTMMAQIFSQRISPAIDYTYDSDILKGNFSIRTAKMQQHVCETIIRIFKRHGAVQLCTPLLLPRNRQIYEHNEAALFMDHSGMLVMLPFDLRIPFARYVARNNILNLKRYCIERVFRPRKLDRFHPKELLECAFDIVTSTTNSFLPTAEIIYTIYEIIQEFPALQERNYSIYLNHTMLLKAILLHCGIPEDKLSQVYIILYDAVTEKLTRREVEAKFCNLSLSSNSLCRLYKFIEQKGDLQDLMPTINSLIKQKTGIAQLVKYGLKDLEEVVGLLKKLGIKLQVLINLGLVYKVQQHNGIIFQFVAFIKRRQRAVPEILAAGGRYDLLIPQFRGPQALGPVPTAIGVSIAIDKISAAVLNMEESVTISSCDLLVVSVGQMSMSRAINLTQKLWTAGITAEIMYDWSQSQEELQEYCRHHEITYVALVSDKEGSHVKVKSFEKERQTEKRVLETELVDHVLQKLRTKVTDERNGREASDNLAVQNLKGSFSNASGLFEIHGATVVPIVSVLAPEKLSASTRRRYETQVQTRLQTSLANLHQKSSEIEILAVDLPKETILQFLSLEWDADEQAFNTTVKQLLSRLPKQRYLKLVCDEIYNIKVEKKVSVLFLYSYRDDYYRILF
Chain of Cyclin-dependent kinase 11B (Homo sapiens) (P21127 whole entry): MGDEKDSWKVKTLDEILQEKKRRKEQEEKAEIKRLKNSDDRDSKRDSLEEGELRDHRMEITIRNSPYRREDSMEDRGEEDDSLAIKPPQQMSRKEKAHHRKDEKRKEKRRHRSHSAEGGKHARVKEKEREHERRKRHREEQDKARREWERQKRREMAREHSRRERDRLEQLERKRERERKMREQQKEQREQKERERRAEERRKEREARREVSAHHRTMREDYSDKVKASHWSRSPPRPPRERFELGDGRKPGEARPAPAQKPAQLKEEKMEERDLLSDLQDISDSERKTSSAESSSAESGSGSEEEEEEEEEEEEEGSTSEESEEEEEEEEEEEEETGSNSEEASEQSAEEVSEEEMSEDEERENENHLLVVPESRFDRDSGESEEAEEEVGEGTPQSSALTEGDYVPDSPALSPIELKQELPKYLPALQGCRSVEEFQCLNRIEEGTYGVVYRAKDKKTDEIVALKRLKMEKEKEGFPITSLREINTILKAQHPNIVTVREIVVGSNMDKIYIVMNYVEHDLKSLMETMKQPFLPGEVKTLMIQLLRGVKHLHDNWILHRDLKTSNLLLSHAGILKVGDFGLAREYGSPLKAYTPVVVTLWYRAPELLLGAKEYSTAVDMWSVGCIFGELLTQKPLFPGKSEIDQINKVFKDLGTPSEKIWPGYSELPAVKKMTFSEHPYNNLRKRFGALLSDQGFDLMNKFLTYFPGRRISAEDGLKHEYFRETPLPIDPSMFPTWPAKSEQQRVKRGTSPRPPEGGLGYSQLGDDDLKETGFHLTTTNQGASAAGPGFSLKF
Chain of TGF-beta receptor type-2 (Homo sapiens) (P37173 whole entry): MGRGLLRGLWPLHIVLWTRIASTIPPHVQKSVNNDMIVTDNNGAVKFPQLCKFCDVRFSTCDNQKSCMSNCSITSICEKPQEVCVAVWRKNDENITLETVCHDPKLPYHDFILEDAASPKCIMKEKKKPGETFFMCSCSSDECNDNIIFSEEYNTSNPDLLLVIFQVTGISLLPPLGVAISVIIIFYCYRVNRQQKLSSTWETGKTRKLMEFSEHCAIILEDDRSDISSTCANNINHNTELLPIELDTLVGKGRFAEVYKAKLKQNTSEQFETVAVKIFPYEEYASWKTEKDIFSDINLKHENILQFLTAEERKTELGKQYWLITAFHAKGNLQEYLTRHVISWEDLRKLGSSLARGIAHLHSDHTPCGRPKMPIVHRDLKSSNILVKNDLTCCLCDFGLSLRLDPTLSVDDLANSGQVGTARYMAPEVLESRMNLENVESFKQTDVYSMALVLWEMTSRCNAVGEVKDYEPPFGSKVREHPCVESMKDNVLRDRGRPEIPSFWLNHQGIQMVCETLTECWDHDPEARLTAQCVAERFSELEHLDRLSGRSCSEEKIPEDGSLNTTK
Chain of Cytoplasmic tyrosine-protein kinase BMX (Homo sapiens) (P51813 whole entry): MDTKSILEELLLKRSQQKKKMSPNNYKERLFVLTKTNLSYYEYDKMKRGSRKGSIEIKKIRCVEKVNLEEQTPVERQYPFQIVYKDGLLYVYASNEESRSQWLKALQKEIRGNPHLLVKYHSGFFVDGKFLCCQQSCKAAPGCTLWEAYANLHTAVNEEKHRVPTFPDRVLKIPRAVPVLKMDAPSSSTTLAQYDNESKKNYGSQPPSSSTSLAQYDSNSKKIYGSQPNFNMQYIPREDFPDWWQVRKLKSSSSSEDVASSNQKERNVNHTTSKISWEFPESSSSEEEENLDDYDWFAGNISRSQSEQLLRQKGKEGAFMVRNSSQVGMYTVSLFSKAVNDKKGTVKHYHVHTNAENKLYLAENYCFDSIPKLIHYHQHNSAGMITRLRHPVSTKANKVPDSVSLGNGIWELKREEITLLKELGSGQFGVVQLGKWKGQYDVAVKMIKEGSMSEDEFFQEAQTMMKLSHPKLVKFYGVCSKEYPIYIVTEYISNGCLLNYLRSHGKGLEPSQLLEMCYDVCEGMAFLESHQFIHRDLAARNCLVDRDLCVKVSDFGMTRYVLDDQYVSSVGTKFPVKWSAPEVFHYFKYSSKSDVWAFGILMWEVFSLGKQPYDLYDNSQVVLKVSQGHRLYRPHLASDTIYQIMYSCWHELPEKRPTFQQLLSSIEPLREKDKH

Cn1nc(C(=O)NCc2ccc(C(=O)O)cc2)cc1-c1ccc2[nH]ccc2c1 [BI 4395]
inactive: residual activity [1] 98% | residual activity [2] 93% | residual activity [3] 81% | residual activity [4] 95% | residual activity [5] 74% | residual activity [6] 95% | residual activity [7] 93% | residual activity [8] 82% | inhibition [9] -4.31% | residual activity [10] 76% | residual activity [11] 85% | residual activity [12] 89% | inhibition [13] 6% | residual activity [14] 94% | residual activity [15] 75% | residual activity [16] 86% | residual activity [17] 81% | residual activity [18] 100% | residual activity [19] 91% | residual activity [20] 85% | residual activity [21] 92% | residual activity [22] 100% | residual activity [23] 77% | residual activity [24] 89% | residual activity [25] 86% | residual activity [26] 96% | residual activity [27] 100% | residual activity [28] 100% | residual activity [29] 93%

CCOC(=O)c1cc2cc(-c3cc(C(=O)NCc4ccc(C(=O)O)cc4)nn3C)ccc2[nH]1 [BI 4394]
inactive: residual activity [1] 82% | residual activity [2] 100% | residual activity [3] 100% | residual activity [4] 87% | residual activity [5] 100% | residual activity [6] 83% | residual activity [7] 98% | residual activity [8] 85% | inhibition [9] 5.88% | residual activity [10] 100% | residual activity [11] 94% | residual activity [12] 94% | inhibition [13] 16.4% | residual activity [14] 100% | residual activity [15] 81% | residual activity [16] 98% | residual activity [17] 92% | residual activity [18] 66% | residual activity [19] 100% | residual activity [20] 100% | residual activity [21] 91% | residual activity [22] 97% | residual activity [23] 96% | residual activity [24] 99% | residual activity [25] 98% | residual activity [26] 73% | residual activity [27] 96% | residual activity [28] 88% | residual activity [29] 85%

— ChEMBL document CHEMBL4507281, “Data for DCP probe BI-4394” (2021)
